US20220162610A1, “NOVEL RNA TRANSCRIPT” (PTC Therapeutics, Inc., priority 2020, published 2022)

Columns and labels:
Assay type in all cases: cell-based, human
SH-SY5Y cells = assay: RNA-seq analysis of transcriptome and splicing changes in SH-SY5Y cells; settings: for splicing events altered: 24 h
Method: SHY5Y cells were seeded in 6-well plates at 6×10^5 cells/well in 2 mL 10% FBS, DMEM and incubated for 4 hours. Cells were then treated with two biological replicates of HTT-C1 at 24 nM or 100 nM (in 0.1% DMSO), or four biological replicates of vehicle control (DMSO) for 24 hours (37° C., 5% CO2, 100% relative humidity). HEK293 cells transfected with U1 snRNA minigene constructs treated with either duplicates of 1 μM HTT-C1 or 0.5% DMSO control and incubated for 48 hours (37° C., 5% CO2, 100% relative humidity).
For library preparation and sequencing, mRNA was enriched from about 3 μg of total RNA using oligo(dT) beads (ThermoFisher Scientific). The mRNA was fragmented randomly using fragmentation buffer followed by cDNA synthesis using the mRNA template and random hexamers primer. Second-strand synthesis buffer (Illumina), deoxynucleotides, ribonuclease H and DNA polymerase I were added to initiate second-strand synthesis. After a series of terminal repair, A-ligation and sequencing adaptor ligation, the double-stranded cDNA library was size selected and enriched by PCR. RNA libraries were sequenced in a HiSeq sequencer (Illumina).
RNA sequencing reads were mapped to human genome (hg19) using Spliced Transcripts Alignment to a Reference (STAR) software (version 2.5) (Dobin et L., (2013) Bioinformatics 1; 29(1):15-21). Uniquely mapped reads (with MAPQ>10) having <5 nt/100 nt mismatches were used for analysis.
For gene expression analysis, the number of reads in a coding sequence (CDS) region of protein-coding genes and exonic regions of non-coding genes were counted and analyzed using DESeq2 (Love et al., (2014) Genome Biology, 15:550). For splicing analysis, reads were counted for different exons or exonic regions. For each exon, a Percent-Spliced-In (PSI) value was calculated using the percent of average read number supporting the inclusion of the exon (include both the upstream and downstream junctions) among all reads supporting either the inclusion or the exclusion of an exon. A minimal of 20 for the denominator of PSI calculation was required. Otherwise a “NA” value would be generated. PSI values for biological replicates were averaged and the PSI difference between two treatment groups was calculated. For statistical test, a 2×2 read counts table was made for each exon with rows for reads supporting inclusion or exclusion and columns for the two comparing sample groups (biological replicates were combined). Fisher's Exact Test was used for statistical test. PSI change of >20% (or <−20%) and P-value <0.001 was used to select exons being regulated by the treatment.

HTT mRNA = assay: RT-qPCR of HTT mRNA in HD patient B lymphocytes (GM04856)
Method: B lymphocytes (GM04856 cells) were plated in 6-well plates at 5×10^5 cells/well in 2 mL of 10% FBS, DMEM and incubated for 6 hours (37° C., 5% CO2, 100% relative humidity). Cells were then treated with HTT-C1 at 125 nM (in 0.5% DMSO) in triplicate for 24 hours. RNA was purified with the RNeasy Mini Kit (Qiagen) according to the manufacturer's protocol. Samples were prepared for RT-PCR (described previously) using 0.04 μL of each primer (at 100 μM). For reverse transcription and PCR, the following steps were performed: RT step: 48° C. (15 min); PCR steps: Step 1: 95° C. (10 min), Step 2: 95° C. (30 sec), Step 3: 55° C. (30 sec), Step 4: 68° C. (1 min); Steps 2 to 4 were repeated for 34 cycles, then held at 4° C. PCR products were separated on 2% agarose E-gels, stained with ethidium bromide and visualized using a UVP gel imager.
To test if the small molecule-induced spliced transcripts are unstable due to nonsense-mediated decay (NMD), GM04856 lymphoblast cells were treated with cycloheximide (CHX). First cells were treated with DMSO or 250 nM HTT-C1 for 18 h. DMSO or 10 uM CHX was then added, and cells harvested for RNAs after 2 h, 4 h, and 8 h.

HTT pre-mRNA intron 49 = assay: Ampliseq Junction Expression Index (JEI) of HTT introns in GM04856 cells; settings: 125 nM, 24 h, vs DMSO, P<0.05
Method: Targeted next-generation sequencing Novel splicing events originating from HTT pre-mRNA upon compound treatment were further analyzed using AmpliSeq technology. The GM04856 cells were plated in 6-well plates at 500,000 cells/well in 2000 μl DMEM/10% FBS and incubated for 6 hours in a cell culture incubator (37° C., 5% CO2, 100% relative humidity). Cells were then treated in triplicate with HTT-C1 at 125 nM (in 0.5% DMSO) for 24 hours. Following treatment, RNA was purified using an RNeasy Mini Kit (Qiagen) according to the manufacturer's protocol. Novel splice variants induced by the HTT-C1 compound were detected using Ion AmpliSeq technology (Life Technologies), a PCR-based target enrichment and next-generation sequencing platform. PCR enrichment of HTT exon targets was accomplished by applying a custom HTT AmpliSeq panel. The panel consisted of two separate PCR primer pools, each producing 33 amplicons. […]
For data analysis, Ampliseq reads (Fastq format) were mapped to human genome (hg19) using tophat2 which allowed identification of both known and novel splice junctions. For each one of the 66 introns of HTT gene, a Junction Expression Index (JEI) was calculated using the percent of reads supporting the splicing of the exact annotated intron among all reads supporting the splicing isoforms using either the 5′ splice or/and 3′ splice site of that intron (FIG. 3B). […]

SMILES	UP cassette exons with no annotation for at least one splice site (SH-SY5Y cells; 24 nM)	expression of HTT (RNA-seq) (SH-SY5Y cells; 24 nM (~2x the IC50))	splicing events altered (SH-SY5Y cells; 24 nM)	UP cassette exons with no annotation for at least one splice site (SH-SY5Y cells; 100 nM)	splicing events altered (SH-SY5Y cells; 100 nM)	pseudoexons activated (SH-SY5Y cells; FIG. 6D comparison with U1-GA variant)	pseudoexons induced (SH-SY5Y cells; at either concentration (24 nM or 100 nM))	reduction in HTT mRNA (RT-qPCR) (HTT mRNA; 250 nM, GM04856 lymphoblast cells, 18 h plus 2-8 h)	lowering of the amount of HTT mRNA as compared to the DMSO control (HTT mRNA; 24-hour treatment, 125 nM, B-lymphocytes from an HD patient)	reduction of junction expression index (JEI) in intron 49 (HTT pre-mRNA intron 49)
CC1(C)CC(Oc2ccc(-c3ccc(-c4cn[nH]c4)cc3O)nn2)CC(C)(C)N1 [HTT-C2]	22%	selectively and potently downregulated expression of HTT	165	44%	215	27	31			
CC1(C)CC(Oc2ccc(-c3ccc(-c4ccnc(O)c4)cc3O)nn2)CC(C)(C)N1 [HTT-C1]								~80%	about 85%	> 25%
